# Patent US10292395B2, “3H-pyrrolopyridine compound, N-oxide thereof or salt thereof, agricultural and horticultural insecticide comprising the compound and method for using the same” (Nihon Nohyaku Co., Ltd., priority 2015, dated 2019)
# What was measured:
# Laodelphax striatella = assay: Insecticidal test on Laodelphax striatella (rice seedling dip); format: in vivo; conditions: Laodelphax striatellus, 192 h, rice seedlings dipped 30 seconds, 3rd-instar larvae, 8 days after inoculation, read-out: insecticidal effect (corrected mortality rate), activity level
# Excerpt: Insecticidal Test on Laodelphax striatella
# The condensed heterocyclic compounds represented by the general formula (1) of the present invention or salts thereof were separately dispersed in water and diluted to 500 ppm, and rice plant seedlings (variety: Nihonbare) were dipped in the agrochemical dispersions for 30 seconds. After air-dried, each seedling was put into a separate glass test tube and inoculated with ten 3rd-instar larvae of Laodelphax striatella, and then the glass test tubes were capped with cotton plugs. At 8 days after the inoculation, the numbers of surviving larvae and dead larvae were counted, the corrected mortality rate was calculated according to the formula shown below, and the insecticidal effect was evaluated according to the criteria of Test Example 1. Corrected mortality rate (%)=100×(Survival rate in a non-treatment plot−Survival rate in a treatment plot)/Survival rate in a non-treatment plot [Math. 2]
# Plutella xylostella = assay: Insecticidal test on Plutella xylostella (dip of Chinese cabbage seedlings with laid eggs); format: in vivo; conditions: 144 h, seedlings with laid eggs dipped about 30 seconds, 25° C., 6 days after dip treatment, read-out: insecticidal effect (corrected mortality rate), activity level
# Excerpt: Insecticidal Test on Plutella xylostella
# Adults of Plutella xylostella were released onto Chinese cabbage seedlings and allowed to lay eggs thereon. At 2 days after the release of the adults, the Chinese cabbage seedlings with laid eggs were dipped for about 30 seconds in agrochemical dispersions diluted to 500 ppm, each of which contained a different condensed heterocyclic compound represented by the general formula (1) of the present invention as an active ingredient. After air-dried, the seedlings were kept in a thermostatic chamber at 25° C. At 6 days after the dip treatment, the number of hatched larvae per plot was counted, the mortality rate was calculated according to the formula shown below, and the insecticidal effect was evaluated according to the criteria of Test Example 1. This test was conducted in triplicate using 10 adults of Plutella xylostella per plot. Corrected mortality rate (%)=100×(Number of hatched larvae in a non-treatment plot−Number of hatched larvae in a treatment plot)/Number of hatched larvae in a non-treatment plot [Math. 3]
compound,measurement,setting,value
CCS(=O)(=O)c1cc(C(F)(F)F)ccc1C1=Nc2cc(C(F)(F)F)cnc2C1(F)F [Compound 1-1],mortality at 500 ppm,Laodelphax striatella,100%
same,mortality at 500 ppm,Plutella xylostella,100%
"CC[S+]([O-])c1cc(C(F)(F)F)cnc1C1=Nc2cc(C(F)(F)F)cnc2C1(F)F (stereo not shown) [Compound 1-9, 2-(3-Ethylsulfinyl-5-trifluoromethylpyridin-2-yl)-3,3-difluoro-6-trifluoromethyl-3H-pyrrolo[3,2-b]pyridine]",mortality at 500 ppm,Laodelphax striatella,100%
same,mortality at 500 ppm,Plutella xylostella,100%
"CCS(=O)(=O)c1cc(C(F)(F)F)cnc1C1=Nc2cc(C(F)(F)F)cnc2C1(F)F [Compound 1-10, 2-(3-Ethylsulfonyl-5-trifluoromethylpyridin-2-yl)-3,3-difluoro-6-trifluoromethyl-3H-pyrrolo[3,2-b]pyridine]",mortality at 500 ppm,Laodelphax striatella,100%
same,mortality at 500 ppm,Plutella xylostella,100%
"CCS(=O)(=O)c1cc(-c2ccc(F)cc2)cnc1C1=Nc2cc(C(F)(F)F)cnc2C1(F)F [Compound 1-19, 2-(3-Ethylsulfonyl-5-(4-fluorophenyl)pyridin-2-yl)-3,3-difluoro-6-trifluoromethyl-3H-pyrrolo[3,2-b]pyridine]",mortality at 500 ppm,Laodelphax striatella,100%
same,mortality at 500 ppm,Plutella xylostella,100%
"CCS(=O)(=O)c1cc(-c2cccc(C(F)(F)F)c2)cnc1C1=Nc2cc(C(F)(F)F)cnc2C1(F)F [Compound 1-20, 2-(3-Ethylsulfonyl-5-(3-trifluoromethylphenyl)pyridin-2-yl)-3,3-difluoro-6-trifluoromethyl-3H-pyrrolo[3,2-b]pyridine]",mortality at 500 ppm,Laodelphax striatella,100%
same,mortality at 500 ppm,Plutella xylostella,100%
